Read-outs that look alike come from different tables or passages of the source.
Tests used:
Type in all cases: biochemical
[1] = biological target: T1, 320 wild-type protein kinases (Homo sapiens, UniProt Q96PY6); conditions: singlicate
T1 sequence (Q96PY6 1-1258): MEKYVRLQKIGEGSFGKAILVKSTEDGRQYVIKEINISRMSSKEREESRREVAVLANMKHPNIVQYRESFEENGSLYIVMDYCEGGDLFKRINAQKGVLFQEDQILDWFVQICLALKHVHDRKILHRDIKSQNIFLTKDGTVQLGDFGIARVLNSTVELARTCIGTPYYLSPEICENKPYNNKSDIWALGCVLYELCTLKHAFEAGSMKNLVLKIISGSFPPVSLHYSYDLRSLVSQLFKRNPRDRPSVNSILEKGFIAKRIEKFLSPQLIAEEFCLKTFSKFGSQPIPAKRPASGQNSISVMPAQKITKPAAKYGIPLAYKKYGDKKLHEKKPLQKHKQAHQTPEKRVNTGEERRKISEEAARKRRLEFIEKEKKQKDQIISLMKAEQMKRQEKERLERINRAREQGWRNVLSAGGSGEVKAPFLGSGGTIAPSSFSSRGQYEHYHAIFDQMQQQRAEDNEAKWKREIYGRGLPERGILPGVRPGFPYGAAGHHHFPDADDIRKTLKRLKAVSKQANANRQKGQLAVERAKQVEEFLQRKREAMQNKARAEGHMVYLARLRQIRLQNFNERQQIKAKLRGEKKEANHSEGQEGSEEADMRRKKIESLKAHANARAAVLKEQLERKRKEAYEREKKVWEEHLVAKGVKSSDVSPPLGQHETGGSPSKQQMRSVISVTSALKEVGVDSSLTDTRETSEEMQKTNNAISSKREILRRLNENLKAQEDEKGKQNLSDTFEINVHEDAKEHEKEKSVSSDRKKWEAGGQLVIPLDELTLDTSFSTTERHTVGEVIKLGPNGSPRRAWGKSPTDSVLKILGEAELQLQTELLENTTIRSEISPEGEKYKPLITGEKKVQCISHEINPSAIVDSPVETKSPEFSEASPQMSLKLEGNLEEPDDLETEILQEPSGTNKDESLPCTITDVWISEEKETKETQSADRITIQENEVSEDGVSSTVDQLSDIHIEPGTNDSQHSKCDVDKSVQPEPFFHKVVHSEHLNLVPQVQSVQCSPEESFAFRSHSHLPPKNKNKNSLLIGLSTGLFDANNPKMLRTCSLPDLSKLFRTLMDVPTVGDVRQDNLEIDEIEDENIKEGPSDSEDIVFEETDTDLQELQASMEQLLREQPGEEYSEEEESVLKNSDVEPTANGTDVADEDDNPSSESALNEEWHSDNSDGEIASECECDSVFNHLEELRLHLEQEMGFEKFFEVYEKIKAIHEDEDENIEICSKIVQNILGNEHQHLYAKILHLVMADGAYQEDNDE
Text: (§1) Table S4. Profiling of two compounds at two concentrations against 320 wild-type protein kinases; singlicate measurement; Residual activities (% of control).

[2] = biological target: 320 wild-type protein kinases (Homo sapiens, UniProt Q16512); conditions: singlicate
320 wild-type protein kinases (Homo sapiens, UniProt Q16512), sequence (Q16512 whole entry): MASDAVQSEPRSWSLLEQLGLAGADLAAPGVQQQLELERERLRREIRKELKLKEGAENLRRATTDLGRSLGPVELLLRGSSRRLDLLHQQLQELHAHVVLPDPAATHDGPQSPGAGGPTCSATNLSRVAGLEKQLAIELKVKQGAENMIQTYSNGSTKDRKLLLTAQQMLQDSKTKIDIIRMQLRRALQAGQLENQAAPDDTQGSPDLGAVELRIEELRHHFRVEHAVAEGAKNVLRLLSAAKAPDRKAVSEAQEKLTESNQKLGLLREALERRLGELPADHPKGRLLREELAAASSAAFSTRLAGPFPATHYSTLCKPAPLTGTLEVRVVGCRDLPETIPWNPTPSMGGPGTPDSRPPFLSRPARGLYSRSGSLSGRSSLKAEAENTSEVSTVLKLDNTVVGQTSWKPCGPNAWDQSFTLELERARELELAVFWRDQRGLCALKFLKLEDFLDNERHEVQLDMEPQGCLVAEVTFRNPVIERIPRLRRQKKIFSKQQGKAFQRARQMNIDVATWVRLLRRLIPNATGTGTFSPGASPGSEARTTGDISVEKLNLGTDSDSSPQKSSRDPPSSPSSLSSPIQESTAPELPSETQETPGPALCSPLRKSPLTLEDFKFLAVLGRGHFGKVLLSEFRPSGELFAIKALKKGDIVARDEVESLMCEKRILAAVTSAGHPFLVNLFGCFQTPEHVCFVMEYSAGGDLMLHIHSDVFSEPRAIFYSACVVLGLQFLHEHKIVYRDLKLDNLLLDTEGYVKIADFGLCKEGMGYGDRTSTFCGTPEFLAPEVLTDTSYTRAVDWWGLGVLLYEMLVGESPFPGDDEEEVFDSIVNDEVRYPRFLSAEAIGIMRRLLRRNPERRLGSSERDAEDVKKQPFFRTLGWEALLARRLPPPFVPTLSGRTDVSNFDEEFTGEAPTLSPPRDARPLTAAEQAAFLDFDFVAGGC
Text: as §1

[3] = biological target: 320 wild-type protein kinases (Homo sapiens, UniProt Q00536); conditions: CDK16/CycY, singlicate
320 wild-type protein kinases (Homo sapiens, UniProt Q00536), sequence (Q00536 whole entry): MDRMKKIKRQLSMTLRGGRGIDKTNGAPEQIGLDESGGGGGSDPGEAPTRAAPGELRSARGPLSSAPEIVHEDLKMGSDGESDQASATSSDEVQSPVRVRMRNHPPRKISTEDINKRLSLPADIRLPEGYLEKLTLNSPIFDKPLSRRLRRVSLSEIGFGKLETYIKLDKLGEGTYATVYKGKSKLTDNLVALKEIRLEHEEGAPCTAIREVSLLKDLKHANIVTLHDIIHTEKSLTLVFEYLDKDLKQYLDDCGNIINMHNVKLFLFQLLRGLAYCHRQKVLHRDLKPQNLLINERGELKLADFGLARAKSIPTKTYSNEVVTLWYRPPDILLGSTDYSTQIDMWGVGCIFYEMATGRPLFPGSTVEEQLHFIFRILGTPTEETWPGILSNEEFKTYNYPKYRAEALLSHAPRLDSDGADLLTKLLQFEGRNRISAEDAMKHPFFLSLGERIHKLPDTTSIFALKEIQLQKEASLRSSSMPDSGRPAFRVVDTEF
Text: as §1

[4] = biological target: 320 wild-type protein kinases (Homo sapiens, UniProt Q05655); conditions: PKC-delta, singlicate
320 wild-type protein kinases (Homo sapiens, UniProt Q05655), sequence (Q05655 whole entry): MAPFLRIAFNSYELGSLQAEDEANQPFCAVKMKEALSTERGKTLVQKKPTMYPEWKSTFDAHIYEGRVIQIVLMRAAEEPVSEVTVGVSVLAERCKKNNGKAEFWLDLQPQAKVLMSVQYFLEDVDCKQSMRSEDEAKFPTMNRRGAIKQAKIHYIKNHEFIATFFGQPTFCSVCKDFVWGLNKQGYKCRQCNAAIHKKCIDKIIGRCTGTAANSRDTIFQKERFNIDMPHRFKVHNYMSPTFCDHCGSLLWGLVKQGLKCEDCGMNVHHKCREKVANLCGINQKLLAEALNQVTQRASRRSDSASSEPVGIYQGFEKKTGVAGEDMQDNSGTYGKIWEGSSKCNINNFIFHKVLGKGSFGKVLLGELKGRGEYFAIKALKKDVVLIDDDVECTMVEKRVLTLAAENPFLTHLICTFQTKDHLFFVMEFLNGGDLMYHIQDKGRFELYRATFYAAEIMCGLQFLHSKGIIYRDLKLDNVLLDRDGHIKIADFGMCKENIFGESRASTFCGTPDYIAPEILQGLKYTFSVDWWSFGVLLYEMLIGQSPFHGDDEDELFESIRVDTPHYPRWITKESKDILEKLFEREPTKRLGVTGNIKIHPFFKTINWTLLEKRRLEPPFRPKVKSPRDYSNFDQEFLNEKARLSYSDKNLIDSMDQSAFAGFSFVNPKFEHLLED
Text: as §1

[5] = biological target: 320 wild-type protein kinases (Homo sapiens, UniProt P11362); conditions: singlicate
320 wild-type protein kinases (Homo sapiens, UniProt P11362), sequence (P11362 22-822): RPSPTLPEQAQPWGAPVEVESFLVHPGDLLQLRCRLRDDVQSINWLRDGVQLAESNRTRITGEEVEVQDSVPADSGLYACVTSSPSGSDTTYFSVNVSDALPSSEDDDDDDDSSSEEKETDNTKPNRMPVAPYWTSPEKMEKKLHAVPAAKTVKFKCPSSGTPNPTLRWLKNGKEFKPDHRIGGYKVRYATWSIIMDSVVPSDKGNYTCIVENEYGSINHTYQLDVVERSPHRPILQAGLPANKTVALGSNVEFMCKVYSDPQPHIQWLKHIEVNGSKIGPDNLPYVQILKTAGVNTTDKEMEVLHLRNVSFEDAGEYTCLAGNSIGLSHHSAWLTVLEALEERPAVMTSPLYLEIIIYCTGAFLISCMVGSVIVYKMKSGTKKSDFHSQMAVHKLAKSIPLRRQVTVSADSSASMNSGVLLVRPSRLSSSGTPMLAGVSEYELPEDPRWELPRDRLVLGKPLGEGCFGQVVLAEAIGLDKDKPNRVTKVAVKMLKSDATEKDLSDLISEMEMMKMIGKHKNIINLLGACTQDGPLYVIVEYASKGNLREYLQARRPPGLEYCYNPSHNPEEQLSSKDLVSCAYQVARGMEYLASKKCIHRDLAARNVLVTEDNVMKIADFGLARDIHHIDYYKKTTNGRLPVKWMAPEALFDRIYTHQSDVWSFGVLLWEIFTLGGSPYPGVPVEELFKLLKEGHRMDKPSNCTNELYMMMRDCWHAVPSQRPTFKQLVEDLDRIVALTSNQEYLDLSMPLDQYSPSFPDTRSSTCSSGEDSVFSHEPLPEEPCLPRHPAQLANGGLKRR
Text: as §1

[6] = biological target: 320 wild-type protein kinases (Homo sapiens, UniProt Q5TCX8); conditions: singlicate
320 wild-type protein kinases (Homo sapiens, UniProt Q5TCX8), sequence (Q5TCX8 whole entry): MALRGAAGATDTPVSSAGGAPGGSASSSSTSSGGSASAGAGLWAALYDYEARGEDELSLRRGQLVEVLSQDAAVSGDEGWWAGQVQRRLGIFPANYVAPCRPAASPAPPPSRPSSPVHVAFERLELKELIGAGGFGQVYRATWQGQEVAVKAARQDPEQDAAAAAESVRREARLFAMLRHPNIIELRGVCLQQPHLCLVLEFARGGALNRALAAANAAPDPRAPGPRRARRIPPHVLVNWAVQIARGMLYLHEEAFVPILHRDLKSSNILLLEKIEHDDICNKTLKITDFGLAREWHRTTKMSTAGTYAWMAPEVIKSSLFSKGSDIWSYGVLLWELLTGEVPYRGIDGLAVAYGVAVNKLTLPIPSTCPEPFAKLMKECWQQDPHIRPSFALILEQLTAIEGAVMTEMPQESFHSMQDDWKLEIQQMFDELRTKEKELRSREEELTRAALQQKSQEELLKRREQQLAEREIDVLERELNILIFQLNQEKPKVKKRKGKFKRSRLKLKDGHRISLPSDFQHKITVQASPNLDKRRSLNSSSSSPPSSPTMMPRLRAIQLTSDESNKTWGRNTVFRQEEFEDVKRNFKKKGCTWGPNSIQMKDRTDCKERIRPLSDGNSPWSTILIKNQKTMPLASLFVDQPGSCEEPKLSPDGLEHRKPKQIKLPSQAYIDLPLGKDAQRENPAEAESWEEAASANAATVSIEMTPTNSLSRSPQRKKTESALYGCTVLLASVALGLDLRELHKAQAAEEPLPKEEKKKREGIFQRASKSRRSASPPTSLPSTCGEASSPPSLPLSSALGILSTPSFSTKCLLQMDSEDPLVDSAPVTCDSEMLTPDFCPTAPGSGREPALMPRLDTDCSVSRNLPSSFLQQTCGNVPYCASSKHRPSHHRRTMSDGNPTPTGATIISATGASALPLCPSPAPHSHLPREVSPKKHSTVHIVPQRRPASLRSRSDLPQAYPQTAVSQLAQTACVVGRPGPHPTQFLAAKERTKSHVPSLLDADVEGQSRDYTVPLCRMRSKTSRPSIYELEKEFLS
Text: as §1

[7] = biological target: 320 wild-type protein kinases (Homo sapiens, UniProt P22607); conditions: singlicate
320 wild-type protein kinases (Homo sapiens, UniProt P22607), sequence (P22607 23-806): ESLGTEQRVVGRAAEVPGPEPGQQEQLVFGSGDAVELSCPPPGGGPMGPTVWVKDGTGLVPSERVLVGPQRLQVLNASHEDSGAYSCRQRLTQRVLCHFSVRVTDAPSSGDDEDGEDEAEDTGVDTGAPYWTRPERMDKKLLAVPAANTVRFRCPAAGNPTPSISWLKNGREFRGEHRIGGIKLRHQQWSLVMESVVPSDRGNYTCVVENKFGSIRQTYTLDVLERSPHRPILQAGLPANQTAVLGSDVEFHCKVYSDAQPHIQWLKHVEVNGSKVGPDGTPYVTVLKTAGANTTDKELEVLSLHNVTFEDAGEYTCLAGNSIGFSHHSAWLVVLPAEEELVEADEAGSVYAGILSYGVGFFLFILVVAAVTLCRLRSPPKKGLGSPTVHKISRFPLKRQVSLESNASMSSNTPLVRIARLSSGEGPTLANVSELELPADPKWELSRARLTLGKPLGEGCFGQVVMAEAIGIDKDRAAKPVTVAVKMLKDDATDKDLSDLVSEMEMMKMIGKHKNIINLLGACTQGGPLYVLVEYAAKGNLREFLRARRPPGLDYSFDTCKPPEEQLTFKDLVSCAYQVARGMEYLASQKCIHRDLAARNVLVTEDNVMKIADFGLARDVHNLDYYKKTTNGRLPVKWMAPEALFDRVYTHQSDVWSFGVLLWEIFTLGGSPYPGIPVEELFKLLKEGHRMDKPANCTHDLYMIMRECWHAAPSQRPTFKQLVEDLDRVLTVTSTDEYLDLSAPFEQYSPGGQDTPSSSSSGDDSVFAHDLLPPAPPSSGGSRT
Text: as §1

[8] = biological target: T2, 320 wild-type protein kinases (Homo sapiens, UniProt P54762); conditions: singlicate
T2 sequence (P54762 18-984): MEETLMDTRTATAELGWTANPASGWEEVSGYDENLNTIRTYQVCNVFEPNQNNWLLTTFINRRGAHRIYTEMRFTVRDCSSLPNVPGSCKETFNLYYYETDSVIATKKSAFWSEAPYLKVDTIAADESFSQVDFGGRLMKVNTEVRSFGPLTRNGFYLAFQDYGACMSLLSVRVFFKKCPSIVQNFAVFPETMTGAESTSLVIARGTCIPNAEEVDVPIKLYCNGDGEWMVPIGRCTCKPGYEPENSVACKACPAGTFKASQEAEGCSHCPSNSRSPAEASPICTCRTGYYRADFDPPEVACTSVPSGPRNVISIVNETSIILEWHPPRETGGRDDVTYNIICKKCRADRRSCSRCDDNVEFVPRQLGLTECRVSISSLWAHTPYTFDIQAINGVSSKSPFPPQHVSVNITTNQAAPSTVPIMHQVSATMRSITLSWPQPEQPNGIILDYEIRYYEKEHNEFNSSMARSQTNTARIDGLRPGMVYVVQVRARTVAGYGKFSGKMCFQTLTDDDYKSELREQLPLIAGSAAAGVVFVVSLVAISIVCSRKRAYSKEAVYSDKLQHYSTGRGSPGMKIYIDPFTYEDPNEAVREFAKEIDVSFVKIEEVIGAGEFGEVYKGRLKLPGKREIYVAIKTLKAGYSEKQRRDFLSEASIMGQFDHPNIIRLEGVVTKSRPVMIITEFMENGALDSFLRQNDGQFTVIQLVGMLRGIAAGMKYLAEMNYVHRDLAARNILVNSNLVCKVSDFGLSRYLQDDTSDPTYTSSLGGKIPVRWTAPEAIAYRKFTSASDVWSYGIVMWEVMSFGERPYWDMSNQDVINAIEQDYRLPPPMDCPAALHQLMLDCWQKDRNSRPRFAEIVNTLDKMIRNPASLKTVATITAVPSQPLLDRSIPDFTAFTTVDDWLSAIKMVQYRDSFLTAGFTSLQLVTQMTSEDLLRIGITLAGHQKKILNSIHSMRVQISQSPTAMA
Text: as §1

Structure (SMILES) | Residual activity ([1]; NEK1, 1.0E-06 M) | Residual activity ([1]; NEK1, 1.0E-07 M) | Residual activity ([2]; PRK1, 1.0E-06 M) | Residual activity ([2]; PRK1, 1.0E-07 M) | Residual activity ([3]; 1.0E-06 M) | Residual activity ([3]; 1.0E-07 M) | Residual activity ([4]; 1.0E-06 M) | Residual activity ([4]; 1.0E-07 M) | Residual activity ([5]; FGF-R1, 1.0E-06 M) | Residual activity ([5]; FGF-R1, 1.0E-07 M) | Residual activity ([6]; MLK4, 1.0E-06 M) | Residual activity ([6]; MLK4, 1.0E-07 M) | Residual activity ([7]; FGF-R3, 1.0E-06 M) | Residual activity ([7]; FGF-R3, 1.0E-07 M) | Residual activity ([8]; EPHB1, 1.0E-06 M) | Residual activity ([8]; EPHB1, 1.0E-07 M)
C#Cc1cc(Nc2ncnc3cc(I)ccc23)ccc1Cl [Compound 41] | 82 % of control | 86 % of control | 96 % of control | 96 % of control | 84 % of control | 84 % of control | 88 % of control | 92 % of control | 85 % of control | 107 % of control | 85 % of control | 79 % of control | 93 % of control | 99 % of control | 87 % of control | 103 % of control
C#Cc1cc(Nc2ncnc3cc(OC)c(OC)cc23)ccc1Cl [Compound 45] | 89 % of control | 89 % of control | 91 % of control | 91 % of control | 90 % of control | 86 % of control | 89 % of control | 115 % of control | 92 % of control | 100 % of control | 83 % of control | 85 % of control | 70 % of control | 79 % of control | 82 % of control | 86 % of control

Source: paper PMC9329436, “Optimization of the 4-anilinoquin(az)oline scaffold as epidermal growth factor receptor (EGFR) inhibitors for chordoma utilizing a toxicology profiling assay platform” (Scientific Reports, 2022)
